Reference: the supplement of paper PMC10331698
± gives the standard deviation of the averaged measurements.

Tests used:
Test in all cases: level (log10 ratio to DMSO vehicle control); higher = higher biomarker level / cell amount than vehicle control
Details in all cases: in DMSO
[1] = compound: O=S(=O)(O)C(F)(F)C(F)(F)C(F)(F)C(F)(F)C(F)(F)C(F)(F)C(F)(F)C(F)(F)F [Perfluorooctanesulfonic acid]
Method: (§1)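 BioMAP Diversity Plus panel of 12 human primary cell co-culture systems (3C, 4H, LPS, SAg, BT, BF4T, BE3C, CASM3C, HDF3CGF, KF3CT, MyoF, Mphg). Compounds were added 1 h before stimulation and left for 24 h (MyoF 48 h; BT 72 h for soluble read-outs or 6 d for IgG). Biomarkers were read by ELISA, cytotoxicity by SRB, PBMC viability and proliferation by Alamar Blue. Each well value was divided by the mean of 8 DMSO control wells on the same plate and log10 transformed; duplicate blinded samples were tested at 4 concentrations.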

[2] = compound: O=S(=O)(O)C(F)(F)C(F)(F)C(F)(F)C(F)(F)C(F)(F)C(F)(F)C(F)(F)C(F)(F)F [Potassium perfluorooctanesulfonate]
Method: as §1

[3] = compound: FC(F)(F)C(F)(F)C(F)(F)C(F)(F)C(F)(F)C(F)(F)C(F)(F)CCI [1-Iodo-1H,1H,2H,2H-perfluorononane]
Method: as §1

[4] = compound: C=CC(=O)OCCC(F)(F)C(F)(F)C(F)(F)C(F)(F)F [2-(Perfluorobutyl)ethyl acrylate]
Method: as §1

[5] = compound: O=C(O)CCC(F)(F)C(F)(F)C(F)(F)F [3:3 Fluorotelomer carboxylic acid]
Method: as §1

[6] = compound: Cn1cnc([N+](=O)[O-])c1Sc1ncnc2[nH]cnc12 [Azathioprine]
Method: as §1

Row | Test System | level (log10) ([1]; 6700 nM) | level (log10) ([1]; 20000 nM) | level (log10) ([1]; 60000 nM) | level (log10) ([2]; 6700 nM) | level (log10) ([2]; 20000 nM) | level (log10) ([2]; 60000 nM) | level (log10) ([3]; 6700 nM) | level (log10) ([3]; 20000 nM) | level (log10) ([4]; 6700 nM) | level (log10) ([4]; 20000 nM) | level (log10) ([4]; 60000 nM) | level (log10) ([5]; 6700 nM) | level (log10) ([5]; 20000 nM) | level (log10) ([5]; 60000 nM) | level (log10) ([6]; 1400 nM) | level (log10) ([6]; 4200 nM) | level (log10) ([6]; 13000 nM) | level (log10) ([6]; 38000 nM)
1 | 3C:CXCL9/MIG | 0.0035 ± 0.00071 | -0.002 ± 0.0057 | 0.009 ± 0.0057 | 0.0085 ± 0.0092 | -0.003 ± 0.0042 | 0.013 ± 0.013 | 0.002 ± 0.0042 | 0.007 ± 0.013 | 0.0135 ± 0.013 | -0.011 ± 0.0099 | -0.0025 ± 0.0035 | 0.0045 ± 0.0021 | -0.001 ± 0.0028 | 0.001 ± 0.0014 | 0.003 | 0.003 ± 0.0014 | 0.0025 ± 0.005 | 0.0125 ± 0.0035
2 | BF4T:CD54/ICAM-1 | -0.0065 ± 0.019 | -0.0115 ± 0.028 | -0.018 ± 0.014 | 0.0055 ± 0.032 | 0.0025 ± 0.012 | 0.0215 ± 0.035 | -0.007 ± 0.018 | -0.0345 ± 0.0064 | -0.0085 ± 0.0078 | -0.013 ± 0.0099 | -0.064 ± 0.014 | -0.0075 ± 0.0092 | 0.007 | -0.008 ± 0.0071 | 0.007 ± 0.02 | -0.0025 ± 0.013 | -0.012 ± 0.0071 | -0.0155 ± 0.022
3 | BF4T:CD106/VCAM-1 | -0.0065 ± 0.0021 | -0.0155 ± 0.012 | -0.016 ± 0.03 | 0.0115 ± 0.015 | -0.014 ± 0.0099 | 0.01 ± 0.052 | -0.027 ± 0.0085 | -0.061 ± 0.014 | 0.005 ± 0.0042 | -0.033 ± 0.025 | -0.08 ± 0.0028 | -0.012 ± 0.041 | 0.0075 ± 0.0078 | 0.0205 ± 0.018 | -0.0185 ± 0.015 | -0.026 ± 0.025 | -0.038 | -0.139 ± 0.016
4 | BE3C:EGFR | 0.0025 ± 0.023 | -0.125 ± 0.059 | -0.159 ± 0.12 | -0.012 ± 0.021 | -0.173 ± 0.043 | -0.182 ± 0.071 | 0.005 ± 0.014 | -0.008 ± 0.02 | -0.003 | -0.0065 ± 0.00071 | -0.014 ± 0.023 | 0.006 ± 0.0057 | 0.0105 ± 0.013 | -0.0015 ± 0.005 | 0.007 ± 0.02 | -0.0125 ± 0.0035 | -0.0055 ± 0.005 | -0.0095 ± 0.019
5 | 4H:VEGFR2 | 0.0265 ± 0.029 | 0.0155 ± 0.0064 | 0.019 ± 0.042 | 0.0245 ± 0.0021 | 0.01 ± 0.024 | 0.027 ± 0.0099 | -0.0015 ± 0.026 | 0.0225 ± 0.06 | 0.01 | -0.006 ± 0.017 | -0.0035 ± 0.037 | -0.0045 ± 0.0078 | -0.0135 ± 0.011 | 0.0075 ± 0.063 | -0.0045 ± 0.012 | 0.0015 ± 0.047 | -0.0195 ± 0.0078 | 0.0155 ± 0.06
6 | 4H:CCL26/Eotaxin-3 | -0.014 ± 0.0014 | -0.032 ± 0.0028 | -0.0595 ± 0.0064 | 0.0085 ± 0.015 | -0.0495 ± 0.021 | -0.0665 ± 0.037 | 0.018 ± 0.0057 | -0.004 ± 0.028 | -0.0355 ± 0.039 | -0.006 ± 0.0071 | 0.0135 ± 0.0078 | -0.005 ± 0.0071 | -0.004 | -0.0225 ± 0.043 | 0.016 ± 0.0099 | -0.009 ± 0.021 | -0.003 ± 0.011 | -0.0255 ± 0.035
7 | BF4T:Keratin 8/18 | -0.009 ± 0.0014 | -0.0015 ± 0.0021 | 0.0135 ± 0.021 | -0.0035 ± 0.022 | 0.01 ± 0.014 | 0.0385 ± 0.053 | -0.016 ± 0.052 | -0.0135 ± 0.0092 | -0.003 ± 0.055 | 0.0035 ± 0.059 | 0.0085 ± 0.036 | 0.004 ± 0.024 | -0.006 ± 0.0042 | 0.0135 ± 0.015 | 0.0075 ± 0.026 | -0.0055 ± 0.0035 | -0.0115 ± 0.013 | 0.0115 ± 0.026
8 | BT:sIL-17A | 0.13 ± 0.18 | 0.106 ± 0.098 | 0.0295 ± 0.025 | 0.023 ± 0.25 | 0.158 ± 0.1 | -0.133 ± 0.022 | 0.0035 ± 0.1 | -0.0305 ± 0.15 | -0.217 ± 0.17 | -0.465 ± 0.067 | -1.03 ± 0.46 | 0.021 ± 0.11 | -0.049 ± 0.13 | -0.0765 ± 0.26 | -0.075 ± 0.078 | -0.179 ± 0.099 | -0.304 ± 0.0057 | -0.804 ± 0.058
9 | LPS:CCL2/MCP-1 | 0.0025 ± 0.00071 | 0.005 ± 0.021 | 0.0075 ± 0.005 | 0.0025 ± 0.0021 | 0.007 ± 0.016 | 0.039 ± 0.0057 | -0.008 ± 0.016 | 0.0145 ± 0.04 | -0.0075 ± 0.0035 | -0.02 ± 0.0085 | -0.0255 ± 0.029 | 0.001 ± 0.023 | -0.0025 ± 0.015 | 0.0135 ± 0.013 | 0.019 ± 0.055 | 0.011 ± 0.0042 | 0.03 ± 0.023 | -0.01 ± 0.0014
10 | SAg:CXCL9/MIG | -0.0035 ± 0.0035 | 0.0105 ± 0.012 | 0.005 ± 0.013 | -0.0135 ± 0.00071 | 0.005 ± 0.0057 | -0.0035 ± 0.019 | -0.009 ± 0.0071 | 0.006 ± 0.0057 | -0.007 ± 0.016 | 0.001 ± 0.0057 | -0.004 ± 0.013 | 0.001 ± 0.0028 | -0.009 ± 0.0014 | 0.001 ± 0.014 | 0.006 ± 0.024 | 0.002 ± 0.0057 | 0.0025 ± 0.0078 | 0.008 ± 0.0085
11 | 3C:SRB | 0.018 ± 0.0042 | -0.008 ± 0.0099 | -0.0625 ± 0.015 | 0.0105 ± 0.025 | -0.0195 ± 0.033 | -0.045 ± 0.042 | 0.0125 ± 0.015 | 0.0295 ± 0.03 | 0.0005 ± 0.021 | 0.0035 ± 0.0092 | -0.0345 ± 0.0078 | -0.0095 ± 0.00071 | -0.006 ± 0.0028 | -0.012 ± 0.0099 | -0.006 ± 0.0014 | -0.016 ± 0.0071 | -0.0275 ± 0.005 | -0.0955 ± 0.019
12 | BE3C:CXCL8/IL-8 | -0.0875 ± 0.0035 | -0.136 ± 0.0021 | -0.348 ± 0.25 | -0.053 ± 0.065 | -0.112 ± 0.035 | -0.082 ± 0.024 | 0.018 ± 0.11 | 0.0505 ± 0.12 | 0.006 ± 0.025 | -0.0165 ± 0.06 | -0.016 ± 0.095 | -0.0085 ± 0.036 | 0.0075 ± 0.005 | -0.0095 ± 0.0092 | -0.012 ± 0.059 | -0.013 ± 0.054 | -0.052 | -0.088 ± 0.013
13 | BE3C:CXCL9/MIG | 0.0105 ± 0.0078 | -0.011 ± 0.021 | -0.513 ± 0.32 | 0.0095 ± 0.0064 | -0.014 ± 0.024 | -0.039 ± 0.021 | -0.0085 ± 0.0035 | -0.0015 ± 0.0092 | 0.0005 ± 0.005 | -0.0085 ± 0.005 | 0.003 ± 0.0057 | 0.006 ± 0.0099 | 0.0055 ± 0.00071 | 0.01 ± 0.0014 | -0.006 ± 0.0085 | 0.0005 ± 0.0035 | -0.0025 ± 0.013 | -0.0015 ± 0.013
14 | BE3C:CD87/uPAR | 0.0465 ± 0.005 | 0.081 ± 0.045 | 0.0355 ± 0.0021 | 0.0335 ± 0.022 | 0.081 ± 0.054 | 0.14 ± 0.025 | 0.0115 ± 0.018 | 0.016 ± 0.0014 | 0.014 ± 0.021 | 0.0125 ± 0.025 | -0.018 ± 0.0071 | 0.0045 ± 0.016 | -0.0035 ± 0.011 | 0.0115 ± 0.019 | 0.0185 ± 0.029 | -0.014 ± 0.0042 | -0.0175 ± 0.057 | -0.0435 ± 0.063
15 | BT:Secreted IgG | -0.0005 ± 0.0078 | 0.0025 ± 0.021 | -0.0315 ± 0.016 | 0.0115 ± 0.018 | 0.018 ± 0.0071 | -0.0055 ± 0.005 | -0.0075 ± 0.06 | 0.0115 ± 0.074 | 0.025 ± 0.017 | -0.053 ± 0.054 | -0.359 ± 0.049 | -0.011 ± 0.024 | -0.0295 ± 0.012 | -0.0155 ± 0.005 | -0.866 ± 0.086 | -0.986 ± 0.019 | -0.857 ± 0.054 | -0.672 ± 0.0085
16 | BE3C:IL-1alpha | 0.0315 ± 0.023 | 0.0055 ± 0.016 | -0.237 ± 0.2 | 0.022 ± 0.0042 | 0.02 ± 0.0071 | -0.0105 ± 0.03 | -0.0075 ± 0.0078 | 0.0075 ± 0.026 | -0.0035 ± 0.022 | -0.0305 ± 0.03 | -0.012 ± 0.0057 | 0.0135 ± 0.037 | 0.0255 ± 0.039 | 0.0155 ± 0.035 | -0.012 ± 0.0099 | 0.0045 ± 0.011 | -0.019 ± 0.0085 | -0.031 ± 0.051
